Here are results for 1 compound from ChEMBL document CHEMBL4823249, “Discovery of a Pyrimidinedione Derivative as a Potent and Orally Bioavailable Axl Inhibitor” (J Med Chem, 2021).

One series has as its target Focal adhesion kinase 1 (Homo sapiens, UniProt Q05397). Kind of series: Inhibition of human recombinant FAK1 (411 to 686 residues) using EEEEYEEEEEEYY as substrate incubated for 40 mins in presence of [gamma-33ATP] by radiometric scintillation counting analysis.
Series [1] has as its system BaF3. Briefly: Antiproliferative activity against mouse BaF3/TEL-AXL cells incubated for 72 hrs by SRB or CCK8 assay. Conditions: BaF3, 72 h. In general terms: Tetrazolium dyes change colour on reduction, which living cells bring about.
Series [2] has as its target Serine/threonine-protein kinase A-Raf (Homo sapiens, UniProt P10398). Briefly: Inhibition of recombinant human A-Raf (273 to end residues) using myelin basic protein as substrate incubated for 40 mins in presence of [gamma-33ATP] by scintillation counting based radiometry assay.
Series [3] has as its target Hepatocyte growth factor receptor (Homo sapiens, UniProt P08581). Briefly: Inhibition of MET signaling in human EBC1 cells assessed as reduction in phosphorylation of MET after 2 hrs by Western blotting analysis. Type of series: cell-based. Conditions: EBC-1, dose 10-100 nM. In general terms: A western blot detects proteins with antibodies after separation by electrophoresis.

Another series concerns HT-29. Briefly: Antiproliferative activity against human HT-29 cells incubated for 72 hrs by SRB or CCK8 assay. It counts as functional, cell-based. Conditions: HT-29, 72 h.
The subject of series [4] is BaF3. Kind of series: Antitumor activity against mouse BaF3/TEL-AXL cells xenografted in BALB/c nude mouse assessed as tumor growth inhibition at 1 mg/kg, po administered once daily for 14 days by caliper method. Conditions: 336 h, time 14 day, read-out: TGI. It counts as functional.
Series [5] deals with Ribosomal protein S6 kinase alpha-1 (Homo sapiens, UniProt Q15418). Kind of series: Inhibition of recombinant full length human Rsk1 using KKKNRTLSVA as substrate incubated for 40 mins in presence of [gamma33P]ATP by scintillation counting based radiometry assay.
For series [6], the target named is Tyrosine-protein kinase Mer (Homo sapiens, UniProt Q12866). Kind of series: Inhibition of recombinant human MER (557 to 882 residues) using GGMEDIYFEFMGG as substrate incubated for 40 mins in presence of [gamma-33ATP by scintillation counting based radiometry assay.
Series [7] has as its system NCI-H1299. Kind of series: Antiproliferative activity against human NCI-H1299 cells at 5 to 125 uM incubated for 72 hrs by SRB or CCK8 assay. Type of series: functional, cell-based. Conditions: dose 5-125 µM.
Another series deals with KMS-11. Kind of series: Antiproliferative activity against human KMS-11 cells incubated for 72 hrs by SRB or CCK8 assay. It counts as functional, cell-based. Conditions: KMS-11, 72 h.
Series [8] has as its target Dual specificity protein kinase CLK1 (Homo sapiens, UniProt P49759). Kind of series: Inhibition of human recombinant CLK1 (130 to end residues) using ERMRPRKRQGSVR as substrate incubated for 40 mins in presence of [gamma-33ATP] by radiometric scintillation counting analysis.
Series [9] deals with Tyrosine-protein kinase ABL1 (Homo sapiens, UniProt P00519). Briefly: Inhibition of human recombinant ABL (27 to end residues) using EAIYAAPFAKKK as substrate incubated for 40 mins in presence of [gamma33P-ATP] by radiometric scintillation counting analysis.
In series [10] the target is Dual specificity mitogen-activated protein kinase kinase 1 (Homo sapiens, UniProt Q02750). Briefly: Inhibition of recombinant human MEK1 using inactive MAPK2 as substrate incubated for 40 mins in presence of [gamma-33ATP] by scintillation counting based radiometry assay.
Sequence of Dual specificity mitogen-activated protein kinase kinase 1 (Q02750 whole entry): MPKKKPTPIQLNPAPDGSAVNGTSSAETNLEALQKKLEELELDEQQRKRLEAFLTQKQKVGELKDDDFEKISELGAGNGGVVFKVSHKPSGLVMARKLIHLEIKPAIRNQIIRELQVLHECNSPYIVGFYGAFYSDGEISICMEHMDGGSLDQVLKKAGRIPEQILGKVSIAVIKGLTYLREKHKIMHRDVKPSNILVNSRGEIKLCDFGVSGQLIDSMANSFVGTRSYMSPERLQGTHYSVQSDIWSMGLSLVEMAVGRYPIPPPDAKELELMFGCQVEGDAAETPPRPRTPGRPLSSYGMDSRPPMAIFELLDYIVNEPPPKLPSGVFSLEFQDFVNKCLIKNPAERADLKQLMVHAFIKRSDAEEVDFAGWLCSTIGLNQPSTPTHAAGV
A further series concerns U-87 MG. Briefly: Antitumor activity against human U-87MG cells xenografted in BALB/c nude mouse assessed as tumor growth inhibition at 5 mg/kg, po administered once daily for 14 days by caliper method. It counts as functional, U-87MG ATCC. Conditions: 336 h, time 14 day, read-out: TGI. Background: In xenograft studies the graft and the host belong to different species.

The target of series [11] is Insulin-like growth factor 1 receptor (Homo sapiens, UniProt P08069). Kind of series: Inhibition of human IGF1R (959 to end residues) using KKKSPGEYVNIEFG as substrate after 40 mins in presence of [gamma-33ATP] by scintillation counting based radiometry assay.
Sequence of Insulin-like growth factor 1 receptor (P08069 31-736 limits assumed): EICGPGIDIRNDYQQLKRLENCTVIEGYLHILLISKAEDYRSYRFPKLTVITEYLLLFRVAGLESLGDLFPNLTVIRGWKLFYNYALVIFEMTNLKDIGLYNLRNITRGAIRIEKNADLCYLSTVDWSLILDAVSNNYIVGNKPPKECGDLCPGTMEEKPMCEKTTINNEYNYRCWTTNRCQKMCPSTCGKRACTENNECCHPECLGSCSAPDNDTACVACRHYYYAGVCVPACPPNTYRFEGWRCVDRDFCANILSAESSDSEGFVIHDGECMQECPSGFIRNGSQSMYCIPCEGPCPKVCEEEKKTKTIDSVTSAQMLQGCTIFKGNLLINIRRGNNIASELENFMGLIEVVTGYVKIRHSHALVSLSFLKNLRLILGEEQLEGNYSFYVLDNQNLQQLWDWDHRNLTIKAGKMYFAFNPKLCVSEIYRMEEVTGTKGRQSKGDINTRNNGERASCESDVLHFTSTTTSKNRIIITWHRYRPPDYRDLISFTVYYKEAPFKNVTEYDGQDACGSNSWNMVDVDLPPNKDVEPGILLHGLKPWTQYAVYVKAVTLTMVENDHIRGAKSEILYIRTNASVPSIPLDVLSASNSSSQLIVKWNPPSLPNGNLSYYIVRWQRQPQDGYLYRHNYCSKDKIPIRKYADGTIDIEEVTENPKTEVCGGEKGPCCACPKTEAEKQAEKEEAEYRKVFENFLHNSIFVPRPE
Sequence of Insulin-like growth factor 1 receptor (P08069 741-1367 limits assumed): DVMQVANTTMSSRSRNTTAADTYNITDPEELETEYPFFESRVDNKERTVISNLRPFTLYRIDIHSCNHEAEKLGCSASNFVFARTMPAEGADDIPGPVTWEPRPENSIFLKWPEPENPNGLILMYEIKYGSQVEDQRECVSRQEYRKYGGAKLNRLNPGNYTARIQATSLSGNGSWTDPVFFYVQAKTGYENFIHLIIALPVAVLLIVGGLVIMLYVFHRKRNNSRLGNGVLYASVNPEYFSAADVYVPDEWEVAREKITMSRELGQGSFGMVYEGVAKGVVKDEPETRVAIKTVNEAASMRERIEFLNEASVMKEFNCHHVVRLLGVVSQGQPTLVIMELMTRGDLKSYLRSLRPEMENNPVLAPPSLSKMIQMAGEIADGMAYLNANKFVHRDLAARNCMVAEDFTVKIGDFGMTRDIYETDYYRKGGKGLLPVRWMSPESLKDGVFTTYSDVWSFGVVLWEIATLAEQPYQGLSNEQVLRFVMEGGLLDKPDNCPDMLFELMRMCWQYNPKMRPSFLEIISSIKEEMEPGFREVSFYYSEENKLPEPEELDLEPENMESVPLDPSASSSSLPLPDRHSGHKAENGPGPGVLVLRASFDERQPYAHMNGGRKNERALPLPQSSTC
Series [12] is described as follows: Half life in ICR mouse at 3 mg/kg, po measured upto 24 hrs by LC-MS analysis. Type of series: ADME, organism-based. Conditions: in vivo.
The nature of series [13]: Clearance in ICR mouse at 1 mg/kg, iv measured upto 24 hrs by LC-MS analysis. Type of series: ADME, organism-based. Conditions: in vivo.
Series [14] can be described thus: AUC(0 to infinity) in Sprague-Dawley rat at 3 mg/kg, po measured upto 24 hrs by LC-MS analysis. It counts as ADME, organism-based. On the set-up: route oral, dose 3 mg/kg, time <=24. Conditions: in vivo.
Series [15] can be described thus: Tmax in ICR mouse at 3 mg/kg, po measured upto 24 hrs by LC-MS analysis. Conditions: in vivo. Type of series: ADME, organism-based.
Series [16] has as its target T1, Tyrosine-protein kinase receptor UFO (Mus musculus) (UniProt Q00993).
T1 sequence (whole entry): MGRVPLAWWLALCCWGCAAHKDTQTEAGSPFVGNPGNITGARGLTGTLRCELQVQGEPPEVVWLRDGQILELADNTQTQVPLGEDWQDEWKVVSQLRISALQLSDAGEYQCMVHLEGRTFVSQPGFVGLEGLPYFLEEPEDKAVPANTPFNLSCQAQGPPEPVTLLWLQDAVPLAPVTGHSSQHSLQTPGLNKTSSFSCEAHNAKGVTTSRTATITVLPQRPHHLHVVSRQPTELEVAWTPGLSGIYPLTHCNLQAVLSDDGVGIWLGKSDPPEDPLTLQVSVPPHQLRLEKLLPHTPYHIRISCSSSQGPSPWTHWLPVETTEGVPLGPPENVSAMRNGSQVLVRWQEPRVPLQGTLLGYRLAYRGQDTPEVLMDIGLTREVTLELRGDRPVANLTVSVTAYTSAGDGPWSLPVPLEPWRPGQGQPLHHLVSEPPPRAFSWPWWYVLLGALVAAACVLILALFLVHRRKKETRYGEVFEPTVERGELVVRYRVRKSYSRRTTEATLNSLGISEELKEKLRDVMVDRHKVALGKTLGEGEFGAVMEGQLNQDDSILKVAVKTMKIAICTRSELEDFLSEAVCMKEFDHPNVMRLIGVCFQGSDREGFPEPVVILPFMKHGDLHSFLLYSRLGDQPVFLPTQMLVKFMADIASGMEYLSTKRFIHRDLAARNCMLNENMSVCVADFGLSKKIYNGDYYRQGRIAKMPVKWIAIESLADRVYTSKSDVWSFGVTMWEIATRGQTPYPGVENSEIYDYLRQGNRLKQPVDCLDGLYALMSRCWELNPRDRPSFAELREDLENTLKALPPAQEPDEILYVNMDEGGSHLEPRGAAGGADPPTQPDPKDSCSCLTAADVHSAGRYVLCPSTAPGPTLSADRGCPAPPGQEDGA
Kind of series: Inhibition of AXL in mouse BaF3/TEL-AXL cells assessed as reduction in Gas6-induced phosphorylation of AXL at 0.5 to 50 nM preincubated for 2 hrs followed by Gas6 stimulation for 15 mins by Western blotting analysis. Type of series: cell-based. Conditions: dose 0.5-50 nM.

In series [17] the target is Fibroblast growth factor receptor 1 (Homo sapiens, UniProt P11362). Briefly: Inhibition of recombinant human FGFR1 (456 to 765 residues) using KKKSPGEYVNIEF as substrate incubated for 40 mins in presence of [gamma-33ATP] by radiometric scintillation counting analysis.
Sequence of Fibroblast growth factor receptor 1 (P11362 whole entry, the tested form may be a part): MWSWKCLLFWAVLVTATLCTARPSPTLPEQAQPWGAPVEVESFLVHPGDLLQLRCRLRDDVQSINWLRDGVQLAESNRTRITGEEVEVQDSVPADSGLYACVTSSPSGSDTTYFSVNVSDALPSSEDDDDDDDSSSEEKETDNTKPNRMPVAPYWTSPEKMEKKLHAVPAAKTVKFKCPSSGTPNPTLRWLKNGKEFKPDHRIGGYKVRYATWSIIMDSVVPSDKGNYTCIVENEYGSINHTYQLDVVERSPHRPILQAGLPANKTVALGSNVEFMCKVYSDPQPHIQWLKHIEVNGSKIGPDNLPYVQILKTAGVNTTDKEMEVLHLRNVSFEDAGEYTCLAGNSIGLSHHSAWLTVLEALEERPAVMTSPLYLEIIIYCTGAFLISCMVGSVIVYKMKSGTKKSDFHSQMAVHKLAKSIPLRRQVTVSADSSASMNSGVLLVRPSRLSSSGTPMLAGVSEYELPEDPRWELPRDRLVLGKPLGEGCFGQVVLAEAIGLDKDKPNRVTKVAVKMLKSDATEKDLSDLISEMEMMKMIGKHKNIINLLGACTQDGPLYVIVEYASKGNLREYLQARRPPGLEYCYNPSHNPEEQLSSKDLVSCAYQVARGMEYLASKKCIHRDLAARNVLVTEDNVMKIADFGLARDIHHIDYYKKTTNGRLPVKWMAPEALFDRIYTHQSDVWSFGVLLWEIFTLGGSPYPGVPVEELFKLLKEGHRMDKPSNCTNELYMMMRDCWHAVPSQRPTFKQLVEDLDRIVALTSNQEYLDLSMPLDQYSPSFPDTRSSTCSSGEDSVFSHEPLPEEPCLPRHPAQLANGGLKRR
Series [18] relates to NCI-H1299. Kind of series: Antiproliferative activity against human NCI-H1299 cells incubated for 72 hrs by SRB or CCK8 assay. Type of series: functional, cell-based. Conditions: NCI-H1299, 72 h.

Activity calls are given as the source filed them. No cut-off for these calls is given here.

Sequence of Hepatocyte growth factor receptor (P08581 whole entry): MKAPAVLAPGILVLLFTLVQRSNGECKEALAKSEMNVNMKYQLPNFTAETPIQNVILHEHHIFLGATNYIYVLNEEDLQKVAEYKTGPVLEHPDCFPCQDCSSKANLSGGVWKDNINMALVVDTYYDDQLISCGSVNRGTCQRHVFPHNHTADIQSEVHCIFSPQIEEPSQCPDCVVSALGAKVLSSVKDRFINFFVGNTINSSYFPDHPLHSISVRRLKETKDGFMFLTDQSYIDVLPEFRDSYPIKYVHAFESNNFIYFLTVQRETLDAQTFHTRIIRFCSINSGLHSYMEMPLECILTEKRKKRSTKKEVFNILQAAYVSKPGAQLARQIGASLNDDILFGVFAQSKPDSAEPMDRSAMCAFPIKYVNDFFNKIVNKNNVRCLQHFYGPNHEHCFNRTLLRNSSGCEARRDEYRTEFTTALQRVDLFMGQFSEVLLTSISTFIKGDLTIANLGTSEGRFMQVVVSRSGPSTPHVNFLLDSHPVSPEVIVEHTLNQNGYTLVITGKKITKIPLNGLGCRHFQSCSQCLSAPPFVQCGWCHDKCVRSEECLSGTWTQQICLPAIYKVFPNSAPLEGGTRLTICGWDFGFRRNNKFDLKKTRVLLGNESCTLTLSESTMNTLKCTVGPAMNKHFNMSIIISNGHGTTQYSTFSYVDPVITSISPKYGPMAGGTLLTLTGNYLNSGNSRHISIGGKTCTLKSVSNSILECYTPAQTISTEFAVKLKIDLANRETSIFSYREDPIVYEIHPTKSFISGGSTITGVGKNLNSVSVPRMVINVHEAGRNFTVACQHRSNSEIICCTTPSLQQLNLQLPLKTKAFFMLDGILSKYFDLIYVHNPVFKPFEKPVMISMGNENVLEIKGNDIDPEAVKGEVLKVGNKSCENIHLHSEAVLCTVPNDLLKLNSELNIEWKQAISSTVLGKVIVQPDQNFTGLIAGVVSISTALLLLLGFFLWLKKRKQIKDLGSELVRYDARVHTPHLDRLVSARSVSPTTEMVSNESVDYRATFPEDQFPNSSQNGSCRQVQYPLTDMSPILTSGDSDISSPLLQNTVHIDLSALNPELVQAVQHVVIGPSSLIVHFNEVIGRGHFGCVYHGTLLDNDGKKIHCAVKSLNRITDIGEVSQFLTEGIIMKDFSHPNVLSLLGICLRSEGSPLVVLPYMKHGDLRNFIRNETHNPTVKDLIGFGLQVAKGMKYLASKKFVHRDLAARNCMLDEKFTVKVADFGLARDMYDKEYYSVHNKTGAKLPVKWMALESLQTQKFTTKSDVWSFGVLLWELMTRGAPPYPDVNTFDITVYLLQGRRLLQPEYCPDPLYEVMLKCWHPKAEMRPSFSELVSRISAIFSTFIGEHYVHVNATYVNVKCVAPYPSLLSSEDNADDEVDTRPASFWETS
Sequence of Serine/threonine-protein kinase A-Raf (P10398 whole entry): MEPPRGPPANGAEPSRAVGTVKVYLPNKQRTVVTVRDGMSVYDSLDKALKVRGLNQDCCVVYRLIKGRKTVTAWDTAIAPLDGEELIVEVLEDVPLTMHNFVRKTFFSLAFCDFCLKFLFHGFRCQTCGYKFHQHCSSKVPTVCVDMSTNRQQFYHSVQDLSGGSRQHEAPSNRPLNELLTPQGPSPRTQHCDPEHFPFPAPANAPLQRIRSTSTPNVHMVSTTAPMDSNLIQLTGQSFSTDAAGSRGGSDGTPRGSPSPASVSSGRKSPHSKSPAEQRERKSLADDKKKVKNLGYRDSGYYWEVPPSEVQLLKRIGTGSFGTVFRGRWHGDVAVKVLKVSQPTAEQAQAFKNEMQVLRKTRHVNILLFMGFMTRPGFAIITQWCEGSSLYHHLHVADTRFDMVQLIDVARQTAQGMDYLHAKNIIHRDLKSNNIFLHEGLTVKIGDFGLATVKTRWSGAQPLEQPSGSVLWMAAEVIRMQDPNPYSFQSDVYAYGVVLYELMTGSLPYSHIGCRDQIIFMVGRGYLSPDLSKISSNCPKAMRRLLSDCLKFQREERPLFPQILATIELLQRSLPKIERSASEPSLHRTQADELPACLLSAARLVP
Sequence of Dual specificity protein kinase CLK1 (P49759 whole entry): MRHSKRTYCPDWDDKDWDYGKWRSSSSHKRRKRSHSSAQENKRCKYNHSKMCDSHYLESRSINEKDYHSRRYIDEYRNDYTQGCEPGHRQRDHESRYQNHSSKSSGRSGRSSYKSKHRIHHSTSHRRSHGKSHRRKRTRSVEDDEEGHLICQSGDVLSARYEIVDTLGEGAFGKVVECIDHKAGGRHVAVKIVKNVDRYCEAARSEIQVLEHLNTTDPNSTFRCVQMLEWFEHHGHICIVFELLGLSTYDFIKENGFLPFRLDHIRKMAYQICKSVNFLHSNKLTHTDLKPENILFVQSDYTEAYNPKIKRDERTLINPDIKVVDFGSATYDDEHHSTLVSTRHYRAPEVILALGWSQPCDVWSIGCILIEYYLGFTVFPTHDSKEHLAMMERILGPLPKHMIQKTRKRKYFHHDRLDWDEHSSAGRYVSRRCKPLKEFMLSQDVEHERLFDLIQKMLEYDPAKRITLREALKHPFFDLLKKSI

A word on the IC50: it is the midpoint of a concentration-inhibition curve. A word on the half-life: it is how long it takes for the measured level to halve. The clearance is the volume of plasma or blood freed of the substance per unit of time. A high value points to efficient removal. As a reminder, the AUC(0-inf) is total exposure, with the tail of the curve extrapolated. Read a high AUC(0-inf) as high exposure. The term Tmax denotes the time from dosing to the highest level. `CC(C)n1cc(C(=O)Nc2ccc(Oc3ccnc(NC(=O)C4CC4)c3)c(F)c2)c(=O)n(-c2ccc(F)cc2)c1=O`: the IC50 was above 1000 nM on Focal adhesion kinase 1; below 0.005 nM with BaF3 [1]; above 1000 nM in [2]; above 10000 nM with HT-29; above 1000 nM in [5]; below 10 nM in series [6]. The IC50 with KMS-11 is above 10000 nM; in [8], above 1000 nM; in series [9] it was above 1000 nM; in series [10] it was above 1000 nM; in series [11], above 1000 nM; in [17], above 1000 nM. Besides, the IC50 in the series on NCI-H1299 [18] is above 10000 nM. Also, the inhibition result in [3] is “Dose-Dependent Effect”. In the series on BaF3 [4], the inhibition in vivo at 1 mg/kg came out at 90.9%. Also, in the series with NCI-H1299 [7], the result was inactive. For the same compound, the inhibition in vivo at 5 mg/kg in the series with U-87 MG was found to be 62.3%. In addition, the half-life in series [12] was 5.2 h. The same compound returned a clearance in series [13] of 2.29 mL/min/kg. The compound also gave an AUC(0-inf) in series [14] of 43900 ng·h/mL. Also, the Tmax in [15] was found to be 1.67 h. Also, in [16], the inhibition result is “Active”.
